Laboratory results taken from patent US12411143B2, “CD146 and uses thereof as a biomarker and as a therapeutic target in the diagnosis and treatment of fibrosis” (ASSISTANCE PUBLIQUE HÔPITAUX DE MARSEILLE, priority 2018, dated 2025).

Experiments:
ECFC [1] = assay: Soluble CD146 secretion in ECFC (ELISA); assay type: cell-based, human; settings: for reduction of sCD146 secretion by siRNA: 24 h TNF 20 ng/ml; for effect of siRNA on sCD146 secretion: control condition; for secretion of soluble CD146 in response to stimuli: 24 h, 20 ng/ml TNF, 20 ng/ml VEGF, 5 ng/ml TGFb, 50 ng/ml netrin, 50 ng/ml Wnt5a; for sCD146 secretion with proteinase inhibitors: IF 50 μM, TIMPs 1 μg/ml
Experimental: A: Secretion of soluble CD146 (CD146s) was determined in ECFC in response to 24 h of treatment with 20 ng/ml TNF, 20 ng/ml VEGF, 5 ng/ml TGFb, 50 ng/ml netrin, 50 ng/ml Wnt5a and 50 ng/ml Wnt3a.
B: The effect of the pan-inhibitor GM6001 was tested on CD146s secretion in ECFC cells by ELISA. Experiments were performed in control conditions and after treatment with 20 ng/ml TNF for 24 h. […] A dose-dependence of GM6001 effect was performed between 1 and 50 μM. Results are the mean values+/−SEM of 5 experiments.
C: The effect of furin convertase inhibitor (IF) was tested at 50 μMon CD146s secretion in control condition and after treatment with TNF 20 ng/ml for 24 h. Results are the mean values+/−SEM of 3 experiments.
D: Effect of TIMP-1, -2 and -3 (1 μg/ml) was tested on CD146s secretion in control condition and after treatment with 20 ng/ml TNF. Results are the mean values+/−SEM of 3 experiments. *: P<0.05, **: P<0.01, ***: P<0.001, experimental vs Control
A: ECFC were transfected with siRNA targeting the short (shCD146) or the long (IgCD146) isoforms of CD146 and with a control siRNA (C). Soluble CD146 (sCD146) secretion was determined. Results are the mean values+/−SEM of 4 different experiments.
B: ECFC were transfected with siRNA targeting MT1-MMP, MMP2, ADAM10 or Tace and with a control siRNA (C). Soluble CD146 (sCD146) secretion was determined. In one condition, cells were treated with GM6001 10 μM. Results are the mean values+/−SEM of 5 different experiments.
A: ECFC were transfected with siRNA targeting the short (shCD146) or the long (IgCD146) isoforms of CD146 and with a control siRNA (C) and soluble CD146 (sCD146) secretion was determined in basal condition and in cells treated for 24 h with TNF 20 ng/ml. Results are the mean values +/−SEM of 5 different experiments.
B: ECFC treated for 24 h with 20 ng/ml TNF were transfected with siRNA targeting Tace, ADAM10, MT1-MMP and with a control siRNA (C) and soluble CD146 (sCD146) secretion was determined. Results are the mean values +/−SEM of 3 different experiments.
Endothelial Colony Forming Cells (ECFC) were cultured in endothelial EGM-2 MV medium as previously described (Delorme B et al., 2005).
SiRNA designed to silence the different isoforms of sCD146 were generated. A control siRNA was also used in each experiment. siRNAs were introduced in endothelial cells using the Silence magmagnetofection kit as described by the manufacturer (OZ Biosciences).
Shed sCD146 was assayed using the commercial ELISA assay (CY-QUANT sCD146, Biocytex, Marseille). Plates were coated with specific mouse monoclonal anti-human CD146 F(ab′)2 fragments. 10 μL of sera was added to each well and incubated for 30 minutes at room temperature. After incubation, the plates were washed five times, followed by incubation with a specific HRP-coupled monoclonal antibody (7A4-HRP, 1 mg/ml, Biocytex, Marseille, France) at a 1:1 000 dilution in a specific diluent for 30 minutes at room temperature and then washed five times. 200 μL of tetramethylbenzidine (TMB) substrate was incubated for approximately 20 minutes at room temperature. The colorimetric reaction was then stopped by the addition of 100 μL of an acid solution. The intensity of the signal was directly related to the concentration of sCD146 initially contained in the sample. For detecting the two spliced isoforms of sCD146 (I5-13-sCD146 and I10-sCD146), the same immunoassay was used (Biocytex). The protocol was modified only for the second antibody (detection antibody) that was replaced by the anti-I5-13-sCD146 or anti-I10-sCD146 antibodies coupled to HRP.

ECFC [2] = assay: Permeability of ECFC monolayer to dextran-FITC; assay type: cell-based, human; settings: siRNA or plasmid transfection
Experimental: D: ECFC were transfected with siRNA targeting ADAM10 or Tace and with a control siRNA (C). The permeability of the ECFC monolayer grown on semi-permeable filters was determined using dextran-FITC. Results are the mean values+/−SEM of 3 experiments.
E: ECFC were transfected with plasmid vectors encoding ADAM10 (p-ADAM10) or Tace (p-Tace) and with a control plasmid vector (C). The permeability of the ECFC monolayer grown on semi-permeable filters was determined using dextran-FITC. Results are the mean values+/−SEM of 3 experiments. *: P<0.05, **: P<0.01, ***: P<0.001, experimental vs Control.
ECFC were seeded at 60,000 cells per well on membrane inserts (porosity 1 μm) of a 24-multiwell double chamber system (Multiwell Insert System, BD Biosciences, Le Pont de Claix, France) after siRNA transfection or not. Confluent endothelial monolayers were then incubated for 24 h in EGM-2 medium in the presence or absence of the different forms of sCD146. The FITC-dextran (sigma) was added at the apical surface of the cells and was allowed to migrate for 1.5 h at 37° C. Basolateral FITC-dextran was then measured using a Cytofluor Series 4000 Fluorescence (PerSeptiveBiosystems, Framingham, MA).

ECFC [3] = assay: mRNA expression of sCD146 isoforms in ECFC (qPCR); assay type: cell-based, human; settings: ECFC; 24 h treatment (WNT5a 15 min, WNT3a 1 h)
Experimental: C: The mRNA expression of I10-sCD146 and I5-13-sCD146 isoforms was analyzed by qPCR in ECFC after treatment of the cells for 24 h with the recombinant shed soluble CD146 50 ng/ml, VEGF 20 ng/ml, TNF 20 ng/ml, TGF beta 5 ng/ml, and netrin 50 ng/ml. Cells were also treated for 15 min with WNT5a 200 ng/ml and 1 h with WNT3a 50 ng/ml. Results are the mean values +/−SEM of 3 experiments. *: P<0.05, experimental vs Control.
Total cellular RNA was isolated from cells, reverse transcribed into cDNA and the resulting cDNA was subjected to qPCR.

[4] = test system: mouse ischemic hind limb model; assay: Mouse hind limb ischemia model; assay type: in vivo
Experimental: A: Ischemic mice were treated with PBS or 2 μg of rh-sCD146/rh-I10-sCD146/rh-I5-13-sCD146 or VEGF. Blood perfusion rate was monitored by laser-Doppler. Results are mean values of 6 different animals in each group and expressed as % of the control leg. *, **, ***: P<0.05, P<0.01, P<0.001, I10-sCD146 vs. PBS; $$, $$$: P<0.01, P<0.001, I5-13-sCD146 vs. PBS; ##, ###: P<0.01, P<0.001, shed sCD146 vs. PBS; £: P<0.05, VEGF vs. PBS.
B: Blood vessels examination in hind limb muscle sections from control (PBS) and shed rh-sCD146/rh-I10-sCD146/rh-I5-13-sCD146 treated animals 28 days after surgery. Vessels are labelled with isolectin B4.**, ***: P<0.01, P<0.001, experimental vs control. $: P<0.05, I10-sCD146 vs I5-13-sCD146.
C: Angiographic pictures of control (PBS) and shed sCD146/I10-sCD146/I5-13-sCD146 treated animals at D28. Pictures are representative of the 6 animals in each group. Average of the density of the vessels was expressed as right versus left leg in the different parts of the legs (calf, thigh) and in the whole leg. *, **: P<0.01, P<0.001 experimental vs PBS in calf; $: P<0.05, experimental vs PBS in thigh; #, ##: P<0.05, P<0.01, experimental vs PBS in whole leg.
In sections of muscles from ischemic mice, vascularisation was visualized with isolectin B4 (Lifetechnologies) ( 1/100). Tissue sections were examined by fluorescence microscopy (Leica sp5, Leica, Nanterre, France).
Female mice were subjected to unilateral hind limb ischemia by complete resection of the entire left femoral artery. After surgery, animals were split in four treatment groups: one control group injected in ischemic adductor muscles twice a week with PBS for 28 days; three experimental groups treated as the control groups with the three different recombinant human soluble CD146 (rh-sCD146, rh-I5-13-sCD146, rh-I10-sCD146) 2 μg.
The ratio of the ischemic versus normal hind limb blood flow was measured using a laser doppler blood flow analyzer. At different time points post-surgery (days 1, 3, 7, 14, 21 and 28), animals were subjected to 3 consecutive laser scannings over the regions of interest (leg and feet). Blood flow was expressed as the ischemic versus normal hind limb ratio.
The animals were deeply anesthetised with mix of Ketamine Xylasine (100 mg/kg and 10 mg/kg respectively) and perfused intracardially with 2 ml of lipiodole. CT 3D images were obtained with a microPET/microCT rodent model scanner (nanoPET/CTO, Mediso) with features below: 70 kVp energy, exposure time of 300 ms and 720 projections and were quantified.

[5] = control condition and TNF 20 ng/ml 24 h

ADAM10 siRNA: siRNA targeting ADAM10; sens 5′GAAUGGUAGAACAAGGUGAtt (sense GAAUGGUAGAACAAGGUGATT; antisense UCACCUUGUUCUACCAUUCCA; chemistry not given here)
reduction of sCD146 secretion by siRNA (ECFC [1]): 60% | effect of siRNA on sCD146 secretion (ECFC [1]): able to inhibit sCD146 secretion | permeability of ECFC monolayer to dextran (ECFC [2]): decreased

CNC(=O)[C@H](Cc1c[nH]c2ccccc12)NC(=O)[C@@H](CC(=O)NO)CC(C)C [GM6001]
GM6001-dependent part of total sCD146 secretion (ECFC [1]; control condition and TNF 20 ng/ml 24 h, GM6001 1-50 μM): around 75%

TGFb: stimulus of endothelial cells, 5 ng/ml [reference compound]
secretion of soluble CD146 in response to stimuli (ECFC [1]): increased | I5-13-sCD146 mRNA level (ECFC [3]): not modified

Tace siRNA: siRNA targeting Tace; sens 5′CAGGAUUUAAAGGUUAUGGAA (antisense UUCCAUAAACCUUUAAAUCCUG; listed as RNA, chemistry not given here)
reduction of sCD146 secretion by siRNA (ECFC [1]): 25% | permeability of ECFC monolayer to dextran (ECFC [2]): did not modify it

VEGF [reference compound]
secretion of soluble CD146 in response to stimuli (ECFC [1]): increased | vascularisation of muscle (isolectin B4 labelling) ([4]; 28 days after surgery, compared to PBS): vascularisation was increased | vessel density in calf, thigh and whole leg (angiography quantification) ([4]; D28, compared to PBS): significantly increased | I5-13-sCD146 mRNA level (ECFC [3]): not modified | I10-sCD146 mRNA level (ECFC [3]): down-regulated

shCD146 siRNA: siRNA targeting the short isoform of CD146; sens 5′CAGGAGAUGGAGAGAAAUACAUCGA (antisense UCGAUGUAUUUCUCUCCAUCUCCUG; chemistry not given here)
reduction of sCD146 secretion by siRNA (ECFC [1]): ~25% | effect of siRNA on sCD146 secretion (ECFC [1]): no effect

TIMP-1: TIMP used to inhibit sCD146 secretion
sCD146 secretion with proteinase inhibitors (ECFC [1]; [5]): able to reduce sCD146 secretion in both conditions

B1: Wnt5a: stimulus of endothelial cells (protein, UniProt P41221 62-380, looked up)
Protein Wnt-5a: IIGAQPLCSQLAGLSQGQKKLCHLYQDHMQYIGEGAKTGIKECQYQFRHRRWNCSTVDNTSVFGRVMQIGSRETAFTYAVSAAGVVNAMSRACREGELSTCGCSRAARPKDLPRDWLWGGCGDNIDYGYRFAKEFVDARERERIHAKGSYESARILMNLHNNEAGRRTVYNLADVACKCHGVSGSCSLKTCWLQLADFRKVGDALKEKYDSAAAMRLNSRGKLVQVNSRFNSPTTQDLVYIDPSPDYCVRNESTGSLGTQGRLCNKTSEGMDGCELMCCGRGYDQFKTVQTERCHCKFHWCCYVKCKKCTEIVDQFVCK
secretion of soluble CD146 in response to stimuli (ECFC [1]): increased | I5-13-sCD146 mRNA level (ECFC [3]): up-regulated

B2: Wnt3a: stimulus of endothelial cells (protein, UniProt P56704 19-352, looked up)
Protein Wnt-3a: SYPIWWSLAVGPQYSSLGSQPILCASIPGLVPKQLRFCRNYVEIMPSVAEGIKIGIQECQHQFRGRRWNCTTVHDSLAIFGPVLDKATRESAFVHAIASAGVAFAVTRSCAEGTAAICGCSSRHQGSPGKGWKWGGCSEDIEFGGMVSREFADARENRPDARSAMNRHNNEAGRQAIASHMHLKCKCHGLSGSCEVKTCWWSQPDFRAIGDFLKDKYDSASEMVVEKHRESRGWVETLRPRYTYFKVPTERDLVYYEASPNFCEPNPETGSFGTRDRTCNVSSHGIDGCDLLCCGRGHNARAERRREKCRCVFHWCCYVSCQECTRVYDVHTCK
I5-13-sCD146 mRNA level (ECFC [3]): not modified | I10-sCD146 mRNA level (ECFC [3]): down-regulated

B3: TIMP-3: TIMP used to inhibit sCD146 secretion (protein, UniProt P35625 24-211, looked up)
Metalloproteinase inhibitor 3: CTCSPSHPQDAFCNSDIVIRAKVVGKKLVKEGPFGTLVYTIKQMKMYRGFTKMPHVQYIHTEASESLCGLKLEVNKYQYLLTGRVYDGKMYTGLCNFVERWDQLTLSQRKGLNYRYHLGCNCKIKSCYYLPCFVTSKNECLWTDMLSNFGYPGYQSKHYACIRQKGGYCSWYRGWAPPDKSIINATDP
sCD146 secretion with proteinase inhibitors (ECFC [1]; [5]): able to reduce sCD146 secretion only when the cells were treated with TNF
